The record followed here is ChEMBL document CHEMBL2007661, “Compounds: GSK PKIS; Assays: UNC Frye lab” (2012).

Holding throughout (details): at 1 µM
In test [1] the target is T1, Inhibitor of nuclear factor kappa-B kinase subunit alpha (Homo sapiens) (UniProt O15111).
T1 sequence (whole entry): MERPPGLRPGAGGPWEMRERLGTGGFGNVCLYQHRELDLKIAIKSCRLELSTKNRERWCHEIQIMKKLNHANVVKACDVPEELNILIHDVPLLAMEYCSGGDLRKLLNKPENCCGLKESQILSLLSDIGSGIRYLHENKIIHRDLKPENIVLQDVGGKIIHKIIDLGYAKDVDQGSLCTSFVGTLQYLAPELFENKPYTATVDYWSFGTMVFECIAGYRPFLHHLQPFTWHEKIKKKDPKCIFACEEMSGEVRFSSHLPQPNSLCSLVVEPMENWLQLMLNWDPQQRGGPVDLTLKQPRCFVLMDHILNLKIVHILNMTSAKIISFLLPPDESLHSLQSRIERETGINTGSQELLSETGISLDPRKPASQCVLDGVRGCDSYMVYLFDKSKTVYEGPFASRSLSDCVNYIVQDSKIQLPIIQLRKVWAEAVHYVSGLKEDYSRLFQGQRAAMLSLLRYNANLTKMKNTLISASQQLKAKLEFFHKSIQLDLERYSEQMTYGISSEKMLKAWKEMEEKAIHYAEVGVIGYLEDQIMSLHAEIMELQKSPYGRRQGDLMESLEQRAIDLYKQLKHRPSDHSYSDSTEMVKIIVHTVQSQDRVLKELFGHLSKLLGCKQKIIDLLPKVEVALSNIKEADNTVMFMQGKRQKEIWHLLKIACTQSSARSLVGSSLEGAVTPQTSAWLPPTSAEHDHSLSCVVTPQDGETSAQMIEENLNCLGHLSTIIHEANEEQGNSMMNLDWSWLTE

In test [2] the target is T2, Inhibitor of nuclear factor kappa-B kinase subunit beta (Homo sapiens) (UniProt O14920).
T2 sequence (whole entry): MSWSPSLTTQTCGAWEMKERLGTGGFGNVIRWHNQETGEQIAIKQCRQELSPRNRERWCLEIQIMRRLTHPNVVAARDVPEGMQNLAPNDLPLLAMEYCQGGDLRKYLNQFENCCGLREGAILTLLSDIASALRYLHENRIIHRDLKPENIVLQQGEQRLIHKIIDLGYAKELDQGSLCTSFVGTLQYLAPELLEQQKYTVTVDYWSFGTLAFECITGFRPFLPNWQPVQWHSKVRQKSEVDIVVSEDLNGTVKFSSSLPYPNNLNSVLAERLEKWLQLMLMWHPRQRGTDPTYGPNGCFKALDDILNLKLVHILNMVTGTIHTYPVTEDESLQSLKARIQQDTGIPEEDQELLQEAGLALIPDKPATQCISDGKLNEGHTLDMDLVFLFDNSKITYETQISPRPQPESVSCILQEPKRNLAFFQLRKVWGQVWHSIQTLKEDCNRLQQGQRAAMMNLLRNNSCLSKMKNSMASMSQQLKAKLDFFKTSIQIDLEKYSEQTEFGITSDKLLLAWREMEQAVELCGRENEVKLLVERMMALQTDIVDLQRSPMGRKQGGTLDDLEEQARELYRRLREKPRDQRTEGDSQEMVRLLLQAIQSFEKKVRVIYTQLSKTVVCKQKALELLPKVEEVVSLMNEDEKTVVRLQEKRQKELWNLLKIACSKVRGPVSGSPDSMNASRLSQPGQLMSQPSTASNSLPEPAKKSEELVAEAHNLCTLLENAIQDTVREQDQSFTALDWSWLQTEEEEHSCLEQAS

The target in test [3] is T3, Inhibitor of nuclear factor kappa-B kinase subunit epsilon (Homo sapiens) (UniProt Q14164).
T3 sequence (whole entry): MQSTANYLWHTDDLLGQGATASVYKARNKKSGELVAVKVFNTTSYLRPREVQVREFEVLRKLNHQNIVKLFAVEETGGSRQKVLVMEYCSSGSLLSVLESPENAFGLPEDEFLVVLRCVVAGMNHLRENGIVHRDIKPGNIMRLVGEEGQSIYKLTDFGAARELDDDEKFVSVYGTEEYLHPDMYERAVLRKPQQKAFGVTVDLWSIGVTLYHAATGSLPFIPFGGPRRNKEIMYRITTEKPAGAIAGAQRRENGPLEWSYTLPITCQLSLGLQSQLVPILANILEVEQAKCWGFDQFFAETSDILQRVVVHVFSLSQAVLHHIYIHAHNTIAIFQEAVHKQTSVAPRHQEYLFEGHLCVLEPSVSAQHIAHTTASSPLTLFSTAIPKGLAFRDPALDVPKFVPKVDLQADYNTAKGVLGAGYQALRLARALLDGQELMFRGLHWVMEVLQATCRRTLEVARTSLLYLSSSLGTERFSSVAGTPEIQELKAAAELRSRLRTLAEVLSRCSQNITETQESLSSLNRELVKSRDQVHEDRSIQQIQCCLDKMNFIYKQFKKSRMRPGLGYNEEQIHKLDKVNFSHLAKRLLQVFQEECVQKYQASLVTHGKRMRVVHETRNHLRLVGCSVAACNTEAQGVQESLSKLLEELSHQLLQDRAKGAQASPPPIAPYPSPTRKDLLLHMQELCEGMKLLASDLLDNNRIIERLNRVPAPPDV

Several values for one entry are separate records, joined by “and”; a condition that tells them apart may be missing. Equal entries are not always repeated.

The inhibition is the drop in the measured response relative to a control, in per cent. For `CNC(=O)c1cccc(C#Cc2cncnc2Nc2ccc(OCc3cccc(F)c3)c(Cl)c2)c1`, the inhibition in test [1] was -1% and 17%; in test [2], -2% and 0%; in test [3], 7% and 1%.

For `Nc1ncc(-c2cccc(S(N)(=O)=O)c2)c2scc(-c3ccc(F)c(Cl)c3)c12`, the inhibition in test [1] was -2%; in test [2], -1% and 0%; in test [3], 1% and 2%.

Consider `c1cnn2ncc(-c3ccnc(NCCCN4CCOCC4)n3)c2c1`, for which the inhibition in test [1] is 2% and 1%; in test [2], -2%; in test [3] it was 1% and 2%.

As for `COc1ccc(-c2nn3ncccc3c2-c2ccnc(Nc3cccc(C(F)(F)F)c3)n2)cc1`, the inhibition was 2% in test [1]; -1% and -3% in test [2]; -1% and 0% in test [3].

Take `Nc1nonc1-c1nc2cnccc2n1C1CCCCC1`: the inhibition in test [1] is 39% and 36%; in test [2], -7%; in test [3], 25%.

Regarding `c1ccc(COc2ccc(Nc3ncnc4ccc(-c5ccco5)cc34)cc2)cc1`, the inhibition in test [1] was 3% and 2%; in test [2], -1% and 4%; in test [3] it was -3% and -1%.

Regarding `COc1ccc(-c2ccc3c(NC(=O)C4CC4)n[nH]c3n2)cc1`, the inhibition is 1% and 2% in test [1]; -5% in test [2]; -1% and 0% in test [3].

In the case of `NS(=O)(=O)c1ccc(N/N=C2\C(=O)Nc3ccc(C(=O)NCCc4c[nH]cn4)cc32)cc1`, the inhibition was 7% and 3% in test [1]; -4% and -2% in test [2]; 17% and 15% in test [3].

Regarding `O=C(Nc1n[nH]c2cc(-c3cc(F)ccc3F)ccc12)C1CC1`, the inhibition in test [1] was 2%; in test [2] it was -2% and -5%; in test [3] it was -3%.

In the case of `CCn1c(-c2nonc2N)nc2cncc(C(=O)N3CCNCC3)c21`, the inhibition in test [1] is 2% and 0%; in test [2], 13% and -2%; in test [3], -2% and 0%.

`O=C(O[C@H]1CN[C@H](C#Cc2cc3ncnc(Nc4ccc(OCc5cccc(F)c5)c(Cl)c4)c3s2)C1)N1CCOCC1`: the inhibition in test [1] was -1% and 0%; in test [2] it was 0% and -1%; in test [3], -1% and -3%.

As to `CC1=C(C(=O)Nc2ccc3[nH]nc(C)c3c2)C(c2ccc(C(F)(F)F)cc2)CC(=O)N1` (configuration not stated), the inhibition was 4% and 5% in test [1]; 6% and 0% in test [2]; -1% and 0% in test [3].

With `CCc1nccc2c1nc(-c1nonc1N)n2CC`, the inhibition in test [1] is 12% and 13%; in test [2] it was 0% and -3%; in test [3], -3% and 0%.

As for `COC(=O)Nc1nc2ccc(Sc3ccc(NC(=O)Nc4cc(C(F)(F)F)ccc4F)cc3)cc2[nH]1`, the inhibition in test [1] was 3%; in test [2], -3%; in test [3], -2% and -1%.

As for `COc1ccc(-c2nn3ncccc3c2-c2ccnc(Nc3ccc(F)c(F)c3)n2)cc1`, the inhibition was 8% and 4% in test [1]; -7% and -1% in test [2]; -4% and -3% in test [3].

In the case of `Fc1cccc(COc2ccc(Nc3ncnc4sc(-c5ccco5)cc34)cc2Cl)c1`, the inhibition in test [1] was 14% and 0%; in test [2], 10% and 6%; in test [3] it was 0% and 2%.

For the compound `COc1cc(/C=N/Nc2ncnc3[nH]ncc23)ccc1O`, the inhibition was 6% in test [1], -10% in test [2] and 20% in test [3].

For `Cc1ccc2c(c1)/C(=N/Nc1ccc(S(N)(=O)=O)cc1)C(=O)N2`, the inhibition was 9% and -3% in test [1]; 4% and 10% in test [2]; -1% and 1% in test [3].

In the case of `Clc1ccc(CNc2nccc(-c3cnn4ncccc34)n2)cc1`, the inhibition in test [1] was -1%; in test [2] it was 5% and -2%; in test [3] it was 0%.

For the compound `COc1cc(Nc2ncc3c(C)nc(-c4cccc(Oc5ccccc5)c4)n3n2)cc(OC)c1OC`, the inhibition in test [1] was 1% and 2%; in test [2] it was -4% and 0%; in test [3] it was 59%.

For the compound `FC(F)(F)c1ccc(-c2nn3ncccc3c2-c2ccnc(Nc3ccc4c(c3)OCCO4)n2)cc1`, the inhibition was 1% and 0% in test [1]; -1% and -3% in test [2]; -2% in test [3].

Regarding `Cc1ccc(C(=O)NC2CCC2)cc1-c1ccc(C(=O)NCC2CC2)cc1`, the inhibition in test [1] was 4%; in test [2], -7% and -4%; in test [3], -1% and -2%.

Take `Cc1cc(O)cc(C)c1/C=C/c1cncc(C(=O)OC(C)(C)C)c1`: the inhibition in test [1] was -1% and 0%; in test [2], -1% and -2%; in test [3] it was -2% and 0%.

For `CCn1c(-c2nonc2N)nc2ccc(F)cc21`, the inhibition in test [1] is 2%; in test [2], 5% and 1%; in test [3], -1%.

Turning to `NS(=O)(=O)c1ccc(-c2cc3ccncc3cc2OCc2ccccc2)cc1`, the inhibition in test [1] was 1%; in test [2], -4% and -6%; in test [3], 0% and 1%.

For the compound `COc1cc2c(cc1Nc1nc(Nc3cccc(F)c3C(N)=O)c3cc[nH]c3n1)N(C(=O)CN1CCN(C(C)C)CC1)CC2`, the inhibition is 4% and 5% in test [1]; -1% and -3% in test [2]; -1% and -2% in test [3].

As for `Nc1nccc(-c2c(-c3ccc(F)cc3)ncn2CCCN2CCOCC2)n1`, the inhibition in test [1] is 6% and 5%; in test [2], -5% and -8%; in test [3] it was 1% and 3%.

`NC(=O)Cc1ccccc1Oc1nccc(-c2c(-c3ccc(F)cc3)ncn2C2CCNCC2)n1`: the inhibition is 2% and 3% in test [1]; -1% in test [2]; 0% and -1% in test [3].

Regarding `COC(=O)c1cncc(/C=C/c2c(C)cc(O)cc2C)c1`, the inhibition in test [1] is 3% and 2%; in test [2], -4% and -5%; in test [3], 0% and 1%.

On to `N#Cc1c(NC(=O)c2ccc(F)cc2)sc2c1CCCC2`, for which the inhibition in test [1] was 0% and 2%; in test [2] it was -2%; in test [3], -4% and -3%.

In the case of `O=S(=O)(CCOCc1ccc(-c2ccc3ncnc(Nc4ccc(OCc5cccc(F)c5)c(Cl)c4)c3c2)o1)c1ccccc1`, the inhibition was 0% in test [1]; -2% and -4% in test [2]; -2% and -1% in test [3].

Turning to `COc1ccccc1-c1cc(/C=C2\C(=O)Nc3ncc(Br)cc32)cc(Br)c1O`, the inhibition in test [1] is 0% and 4%; in test [2], -4% and -2%; in test [3] it was 10%.

For `Cc1ccc(C(=O)NC(C)C)cc1-c1ccc(C(=O)NCC2CC2)cc1`, the inhibition was 0% and -2% in test [1]; -1% and 3% in test [2]; 0% and -2% in test [3].

Regarding `COc1cc(Nc2nccc(Nc3ccc4c(C)n[nH]c4c3)n2)cc(OC)c1OC`, the inhibition in test [1] was -1% and -2%; in test [2], -2%; in test [3], 22% and 23%.
